Reference: patent US20210170000A1, “Larval preparation of Heligmosomoides polygyrus bakeri as well as methods of making it and uses thereof” (Helmholtz Zentrum München Deutsches Forschungszentrum für …, priority 2018, published 2021)

Experiments:
human MDM = experiment: HpbE- or Hpb GDH-treated human MDM with inhibitors or neutralizing antibodies; format: cell-based
Description: In order to identify immuneregulatory proteins present in HpbE, the inventors fractionated the extract by size exclusion chromatography and identified active fractions (8-11) based on the capacity to induce the COX metabolite TXB2 as well as IL-10 (FIGS. 4C and 4D). The inventors then identified proteins present in active and non-active fractions by mass spectrometry, thus highlighting Hpb glutamate dehydrogenase (GDH) as a major immuneregulatory candidate, which was uniquely present in active fractions of HpbE (summarized in FIG. 4E). In addition, an inhibitor of GDH (Bithionol), which is also used as an anti-helminthic, reduced the HpbE-triggered induction of PGE2 and IL-10 (FIG. 4F).
As a new tool for studying the uptake, localization and function of Hpb GDH in vivo and in target cells in vitro, we generated monoclonal antibodies (mABs) specific for Hpb GDH (i.e. not cross-reactive with mammalian (human/mouse) GDH) (FIG. 5). Clone 4F8 was selected as the best candidate for further sub cloning and for testing in neutralization experiments. […]
As HIF-1α is positively regulated by the p38 MAPK, the inventors studied the involvement of p38 signaling in the induction of type 2-suppressive mediators by HpbE. In human MDM, p38 was phosphorylated upon treatment with HpbE, correlating with the induction of COX-2 (FIG. 11A) and a p38 inhibitor (VX-702) abrogated the induction of IL-10, IL-1R and PGE2-synthetic enzymes (PTGS2 and PTGES) (FIG. 11B to D). In line with HIF-1α dependent regulation in murine BMDM, a pharmacological inhibitor of HIF-1α (acriflavine) attenuated the HpbE-induced expression of IL-10, IL-1β and COX pathway enzymes in human MDM (FIG. 11B to D). However, p38 and HIF-1α were not responsible for the modulation of the 5-LOX pathway (FIG. 11D).
(§1) Monocyte-derived macrophages (MDM) or bone marrow derived macrophages (BMDM) were generated by culture in the presence of human or murine recombinant GM-CSF (10 ng/ml) (Miltenyi Biotech) and human recombinant TGF-β1 (2 ng/ml) (Peprotech) as previously described (Esser-von Bieren et al. (2013), PLoS Pathog., 9:e1003771; Dietz et al. (2016), J. Allergy Clin Immunol, 139(4):1343-1354.e6). On day 6, cells were harvested and used for further experiments.
(§2) Eicosanoids were quantified by liquid chromatography tandem mass spectrometry (LC-MS/MS) similar to a previously published method (Henkel et al. (2018); Allergy, doi:10.1111/a11.13700). Cytokines were quantified using commercially available multiplex assays or ELISA kits according to the manufacturer's instructions.

human granulocytes = experiment: Granulocyte chemotaxis (trans-well) towards nasal polyp secretions; format: cell-based; settings: for reduction of granulocyte chemotaxis in response to nasal polyp secretions: cells from AERD patients (n=6) and healthy controls (n=3), fluticasone propionate 1 μM, Montelukast 10 μM
Method: Granulocyte recruitment (induced by chemokines or nasal polyp secretions) was assessed with or without pre-treatment with Hpb proteins by using trans-well assays. Migrated granulocytes were enumerated microscopically and by flow cytometry.
PMN were resuspended to a concentration of 1×10^6 cells/ml in the presence of 100 ng/ml human GM-CSF (Miltenyi Biotech) and overnight stimulated with 10 μg/ml HpbE. When mentioned, PMN were pre-treated with 1 μM fluticasone propionate (Sigma-Aldrich), 10 μM montelukast (Cayman Chemical) or conditioned media from MDM stimulated overnight with 10 μg/ml Hpb extract+/−100 μM Indomethacin for 1 hour. PMN migration in response to nasal polyp secretions or a chemokine cocktail of 2 ng/ml RANTES, 20 ng/ml IL-8 (Miltenyi Biotech) and 2 ng/ml LTB4 (Cayman Chemical) was tested. Chemoattractants were placed in the lower wells of a chemotaxis plate (3 μm pore size; Corning). After mounting the transwell unit, […] PMN were added to the top of each well and migration was allowed for 3 hours at 37° C., 5% CO2. The number of cells migrating to the lower well was counted microscopically. In some experiments, manual counting was validated by flow cytometry.

human granulocytes (PMN) = experiment: Mediator production by human granulocytes (PMN); format: cell-based
Method: (§3) Human polymorphonuclear leukocytes (PMN) or peripheral blood mononuclear cells (PBMC) were isolated from the peripheral blood from healthy controls or patients suffering from AERD using density gradient centrifugation. For some experiments, cells were further separated into monocytes (CD14^+), neutrophils (CD16^+) or eosinophils. CD14^+ monocytes were differentiated into macrophages by culture for 6-8 days in the presence of GM-CSF and TGFbl. In most experiments, cells were treated with Hpb proteins at a concentration of 10 μg protein/ml.
(§4) Mediator analysis in cell supernatants (+/−Hpb proteins) was performed by immunoassay for individual mediators (e.g. LTs, PGE2 or IL-10) or LC-MS/MS or Multiplex cytokine analysis for overall mediator profiles.
Hpb proteins (e.g., total somatic homogenate of Hpb L3 larvae) broadly modulate mediator profiles of human myeloid cells.
as §2

[1] = system: human monocyte derived macrophages (MDM); experiment: Mediator (eicosanoid, cytokine) production by human monocyte derived macrophages; format: cell-based
Method: as §3, §4
In order to study the effect of Hpb proteins on human macrophages, human monocyte derived macrophages (MDM) were stimulated with A23187 after 16 hrs. treatment with helminth proteins (e.g., total somatic homogenate of Hpb L3 larvae).
(§5) Human monocyte derived macrophages (MDM) were isolated, cultured and stimulated as described herein, e.g. in Example 3.
(§6) Eicosanoids or cytokines were quantified by LC-MS/MS or immunoassays as described herein, e.g. in Example 3.
as §1, §2

MDM from AERD patients = experiment: Eicosanoid production by MDM from AERD patients; format: cell-based, human
Description: To validate the efficacy of HpbE in a relevant therapeutic indication, the inventors generated MDM from AERD patients and studied the effects of HpbE and FP on the mediator output.
as §5, §6

[2] = purified recombinant His-tagged protein

With `CC(C)(C)c1ccc(S(=O)(=O)/C=C/C#N)cc1` [BAY 11-7085] the “PGE2, IL-10 and IL-1β production as well as gene expression of PGE2-synthetic enzymes and IL-10” value (human MDM; HpbE-treated human MDM, inhibition of NFκβ, 5 μM) was “significantly reduced”.

For `Oc1c(Cl)cc(Cl)cc1Sc1cc(Cl)cc(Cl)c1O` [Bithionol], the “HpbE-triggered induction of PGE2 and IL-10” value (human MDM; inhibitor of GDH, 20 μM) was “reduced”.

In the case of `CS(=O)(=O)c1ccc(-c2noc(C(F)(F)F)c2-c2ccccc2)cc1` [CAY10404], the “HpbE-triggered COX-2 expression” value (human MDM; COX inhibitors) is reported as “reduced” and the “suppression of the 5-LOX pathway” value (human MDM; COX inhibitors) is reported as “remained largely unaffected”.

For `CC(C)(O)c1ccccc1CC[C@@H](SCC1(CC(=O)O)CC1)c1cccc(/C=C/c2ccc3ccc(Cl)cc3n2)c1` [Montelukast], the “reduction of granulocyte chemotaxis in response to nasal polyp secretions” value (human granulocytes) was 10%.

`NC(=O)c1ccc(N(C(N)=O)c2c(F)cccc2F)nc1-c1ccc(F)cc1F` [VX-702] was tested, and the “induction of IL-10, IL-1R and PGE2-synthetic enzymes (PTGS2 and PTGES)” value (human MDM; p38 inhibitor) was “abrogated”.

`CCC(=O)O[C@]1(C(=O)SCF)[C@H](C)C[C@H]2[C@@H]3C[C@H](F)C4=CC(=O)C=C[C@]4(C)[C@@]3(F)[C@@H](O)C[C@@]21C` [fluticasone propionate] was tested, and the “pro-inflammatory arachidonic acid (AA) and linoleic acid (LA) metabolites” value (human granulocytes (PMN)) was “reduce”, the “reduction of granulocyte chemotaxis in response to nasal polyp secretions” value (human granulocytes) was “failed to reduce chemotactic responses” and the “cell recruitment: migration of AERD patient granulocytes towards nasal polyp secretions ex vivo” value (human granulocytes; pre-treatment of AERD granulocytes) was “not achieved”. For the same compound, the “eicosanoid output in MDM from healthy individuals” value ([1]; weak induction of PGE2) was “only minor effects” and the “eicosanoid output of MDM from AERD patients” value (MDM from AERD patients) was “no effects”.

In the case of `COc1ccc2c(c1)c(CC(=O)O)c(C)n2C(=O)c1ccc(Cl)cc1` [indomethacin], the “HpbE-triggered COX-2 expression” value (human MDM; COX inhibitors) is reported as “reduced”, the “suppression of the 5-LOX pathway” value (human MDM; COX inhibitors) is reported as “remained largely unaffected” and the “induction of IL-10, IL-1β and PTGES” value (human MDM; COX inhibitors, CAY10404 10 μM) is reported as “reduced”.

In the case of “Recombinant Hpb GDH: Recombinant His-tagged Hpb glutamate dehydrogenase (UniProtKB A0A183FP08, SEQ ID NO: 1) expressed in E. coli”, the “PGE2 and IL-10 production by human macrophages” value [1, 2] is reported as “induce” and the “generation of pro-inflammatory cysLTs by human macrophages” value [1, 2] is reported as “reduce”.

For acriflavine, the “HpbE-induced expression of IL-10, IL-1β and COX pathway enzymes” value (human MDM; pharmacological inhibitor of HIF-1α) was “attenuated”.
